These results are taken from ChEMBL document CHEMBL5214979 (J Med Chem, 2022).

Bounds are passed on as bounds.

The target of series [1] is T1, Branched-chain-amino-acid aminotransferase, mitochondrial (Homo sapiens, UniProt O15382).
T1 sequence (O15382 whole entry): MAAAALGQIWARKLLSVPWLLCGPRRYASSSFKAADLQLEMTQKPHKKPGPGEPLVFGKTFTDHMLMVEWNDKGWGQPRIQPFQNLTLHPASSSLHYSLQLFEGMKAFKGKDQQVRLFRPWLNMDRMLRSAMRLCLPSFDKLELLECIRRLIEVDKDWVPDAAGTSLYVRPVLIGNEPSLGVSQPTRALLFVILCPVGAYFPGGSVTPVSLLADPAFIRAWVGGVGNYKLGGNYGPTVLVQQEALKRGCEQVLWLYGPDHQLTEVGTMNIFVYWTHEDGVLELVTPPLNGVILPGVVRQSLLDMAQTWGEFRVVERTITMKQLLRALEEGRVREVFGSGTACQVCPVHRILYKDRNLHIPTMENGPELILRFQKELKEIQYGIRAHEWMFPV
Put plainly: Inhibition of human recombinant BCAT2 using leucine and alpha-KG as substrate in presence of NADH by fluorescence assay.

A short description of series [2]: Apparent permeability of the compound from apical to basolateral side in human Caco-2 cells incubated for 2 hrs by LC-MS/MS analysis. The note with it: caco-2, 2 h.
The target of series [3] is T2, Branched-chain-amino-acid aminotransferase, cytosolic (Homo sapiens, UniProt P54687).
T2 sequence (P54687 whole entry): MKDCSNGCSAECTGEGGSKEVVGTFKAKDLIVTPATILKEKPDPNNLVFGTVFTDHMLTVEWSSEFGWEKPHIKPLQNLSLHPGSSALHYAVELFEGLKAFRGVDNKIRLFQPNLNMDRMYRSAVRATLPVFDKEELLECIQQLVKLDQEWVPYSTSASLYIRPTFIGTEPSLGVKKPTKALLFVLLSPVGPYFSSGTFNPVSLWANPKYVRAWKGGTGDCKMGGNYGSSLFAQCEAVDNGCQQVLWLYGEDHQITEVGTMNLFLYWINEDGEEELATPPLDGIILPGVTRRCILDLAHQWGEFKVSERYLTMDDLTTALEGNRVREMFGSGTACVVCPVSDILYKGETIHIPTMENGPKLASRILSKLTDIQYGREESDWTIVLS
The experiment in a line: biochemical.
Description: Inhibition of N-terminal his-tagged human recombinant BCAT1 expressed in Escherichia coli BL21(DE3) cells using leucine and alpha-KG as substrate in presence of NADH by fluorescence assay

Series [4] can be described thus: Upregulation of BCAA expression in human MDA-MB-231 cells. Format: functional, cell-based.
The nature of series [5]: Metabolic stability in human liver microsomes assessed as blood clearance incubated upto 60 mins by LC-MS/MS analysis. Format: ADME, Microsome.
The nature of series [6]: Metabolic stability in Wistar Han rat hepatocyte assessed as blood clearance at 1 uM incubated upto 90 mins by LC-MS/MS analysis. Format: ADME, cell-based. The note with it: hepatocytes.
Series [7] is described as follows: Metabolic stability in human liver microsomes assessed as maximal oral bioavailability incubated upto 60 mins by LC-MS/MS analysis. Format: ADME, Microsome.
A short description of series [8]: Apparent permeability of the compound from basolateral to apical side in human Caco-2 cells incubated for 2 hrs by LC-MS/MS analysis. Format: ADME, cell-based. Particulars: caco-2, 2 h.
Series [9] can be described thus: Lipophilicity, logD of compound at pH 7.5. Particulars: buffer. Format: physicochemical.
The nature of series [10]: Aqueous solubility of compound in PBS buffer at pH 6.5 incubated for 24 hrs by HPLC-UV analysis. Format: physicochemical. Particulars: pH 6.5, 24 h.

Consider `Cc1ccccc1Oc1cc(-n2c(=O)cc(C(F)(F)F)[nH]c2=O)c(F)cc1C#N`, for which the half-inhibitory concentration (IC50) in [1] was 13.3 µM.
With `N#Cc1cc(F)c(-n2c(=O)cc(C(F)(F)F)[nH]c2=O)cc1Oc1ccccc1`, the half-maximal inhibitory concentration (IC50) in series [1] was 13.4 µM.
In the case of `COc1cc(C#N)c(Oc2ccccc2C)cc1-n1c(=O)cc(C(N)=O)[nH]c1=O`, the Papp in [2] was 1.1 ×10⁻⁶ cm/s.
For the compound `COc1cc(OC)c(-n2c(=O)cc(C(F)(F)F)[nH]c2=O)cc1Cl`, the concentration for half-maximal inhibition (IC50) came out at 20 µM in series [1] and 3.3 µM in series [3].
As to `CCCc1cc(=O)n2nc(NCc3c(F)cc(Cl)cc3F)c(C#N)c2[nH]1`, in [4], the half-maximal inhibitory concentration (IC50) turned out to be 564 µM.
As to `COc1cc(C#N)c(Oc2ccccc2C)cc1-n1c(=O)cc(C(F)(F)c2ccccc2)[nH]c1=O`, the Papp in series [2] was found to be 32.9 ×10⁻⁶ cm/s.
Regarding `COc1cc(C#N)c(Oc2ccccc2C)cc1-n1c(=O)cc(C(F)(F)C(F)(F)F)[nH]c1=O`, the Papp in series [2] amounted to 3.3 ×10⁻⁶ cm/s.
On to `COc1cc(C#N)c(Oc2ccccc2C)cc1-n1c(=O)cc(Br)[nH]c1=O`, for which the Papp in [2] came out at 7.1 ×10⁻⁶ cm/s.
Consider `CNC(=O)c1ccn2c(-n3c(=O)cc(C(F)(F)F)[nH]c3=O)c(-c3ccccn3)nc2c1`, for which half-maximal inhibition in [3] (IC50) required 0.85 µM.
Regarding `COc1cc(C#N)c(Oc2ccccc2C)cc1-n1c(=O)cc(S(C)(=O)=O)[nH]c1=O`, the Papp in [2] turned out to be 2.9 ×10⁻⁶ cm/s.
For `COc1cc(C#N)c(Oc2ccccc2C)cc1-n1c(=O)cc(C(F)(F)Cl)[nH]c1=O`, the apparent permeability coefficient (Papp) in series [2] turned out to be 3 ×10⁻⁶ cm/s.
In the case of `Cc1ccccc1Oc1cc(-n2c(=O)cc(C(F)(F)F)[nH]c2=O)c2ccccc2c1` [BAY-771], the results for the Papp in series [2] and in series [8] were 27.5 ×10⁻⁶ cm/s and 17.1 ×10⁻⁶ cm/s, respectively. In [5], the CLhep predicted was 13.2 mL/min/kg. Besides, in series [6], the CLhep predicted at […], 1 µM was 41.7 mL/min/kg. The Fh at 1 h in [7] was found to be 40%. This compound also returned a log distribution coefficient (logD) in [9] of 2.2. In [10], this compound showed a solubility greater than 412 µg/mL.
As for `COc1cc(C#N)c(Oc2ccccc2C)cc1-n1c(=O)cc(S(=O)(=O)c2ccccc2)[nH]c1=O`, in [2], the Papp worked out at 0.05 ×10⁻⁶ cm/s.
As for `Cc1ccccc1Oc1cc(-n2c(=O)cc(C(F)(F)F)[nH]c2=O)c(C)cc1C#N`, in series [2], the apparent permeability coefficient (Papp) worked out at 4.8 ×10⁻⁶ cm/s.
As for `COc1cc(C#N)c(Oc2ccccc2C)cc1-n1c(=O)cc(C(F)(F)F)[nH]c1=O`, the apparent permeability (Papp) in series [2] came out at 2.3 ×10⁻⁶ cm/s.
On the same count and under the same terms, the same measure for `COc1cc(Cl)c(Oc2ccccc2C)cc1-n1c(=O)cc(C(F)(F)F)[nH]c1=O`: 19.9 ×10⁻⁶ cm/s; for `COc1cc(C#N)c(Oc2ccccc2C)cc1-n1c(=O)cc(-c2ccccc2)[nH]c1=O`: 28.4 ×10⁻⁶ cm/s.
